Where a name gives a salt, the structure may show the parent alone.

One may read the melting point as the temperature, or range, at which the solid turns liquid. Take `N#Cc1ccc(N2CCN(CCCOc3ccc(F)cc3Br)CC2)c2c1OCCO2` (as salt: oxalate) [Compound 6b, 8-{4-[3-(2-Bromo-4-fluoro-phenoxy)-propyl]-piperazin-1-yl}-2,3-dihydro-benzo[1,4]dioxine-5-carbonitrile]: the melting point lay within 152 to 154 °C.

In turn, `Fc1ccc(SCCN2CCN(c3cccc4c3OCCO4)CC2)cc1` (as salt: oxalate) [Compound 3b, 1-(2,3-Dihydro-benzo[1,4]dioxin-5-yl)-4-[2-(4-fluoro-phenylsulfanyl)-ethyl]-piperazine] registered a melting point of 200 to 202 °C.

Regarding `Fc1cc(F)c(OCCCN2CCN(c3cccc4c3OCCO4)CC2)c(F)c1` (as salt: hydrochloride) [Compound 1c, 1-(2,3-Dihydro-benzo[1,4]dioxin-5-yl)-4-[3-(2,4,6-trifluoro-phenoxy)-propyl]-piperazine], the melting point lay within 210 to 220 °C.

`Cc1cc(F)ccc1OCCCN1CCN(c2cccc3c2OCCO3)CC1` (as salt: oxalate) [Compound 1e, 1-(2,3-Dihydro-benzo[1,4]dioxin-5-yl)-4-[3-(4-fluoro-2-methyl-phenoxy)-propyl]-piperazine] yielded a melting point of 139 to 150 °C.

`Fc1ccccc1OCCCN1CCN(c2cccc3c2OCCO3)CC1` (as salt: oxalate) [Compound 2c, 1-(2,3-Dihydro-benzo[1,4]dioxin-5-yl)-4-[3-(2-fluoro-phenoxy)-propyl]-piperazine] showed a melting point of 167 to 169 °C.

In the case of `Fc1ccc(OCCCCN2CCN(c3cccc4ccsc34)CC2)c(Cl)c1` (as salt: hydrochloride) [Compound 2f, 1-Benzo[b]thiophen-7-yl-4-[4-(2-chloro-4-fluoro-phenoxy)-butyl]-piperazine], the melting point is 193 to 195 °C.

With `N#Cc1ccc(N2CCN(CCCOc3ccccc3Cl)CC2)c2c1OCCO2` (as salt: oxalate) [Compound 6c, 8-{4-[3-(2-Chloro-phenoxy)-propyl]-piperazin-1-yl}-2,3-dihydro-benzo[1,4]dioxine-5-carbonitrile], the melting point fell in the range of 96 to 98 °C.

`FC(F)(F)c1ccc(OCCCN2CCN(c3cccc4c3OCCO4)CC2)cc1` (as salt: oxalate) [Compound 2b, 1-(2,3-Dihydro-benzo[1,4]dioxin-5-yl)-4-[3-(4-trifluoromethyl-phenoxy)-propyl]-piperazine] yielded a melting point of 148 to 150 °C.

Regarding `Clc1cccc(Cl)c1SCCN1CCN(c2cccc3c2OCCO3)CC1` (as salt: oxalate) [Compound 3d, 1-[2-(2,6-Dichloro-phenylsulfanyl)-ethyl]-4-(2,3-dihydro-benzo[1,4]dioxin-5-yl)-piperazine], the melting point was 188 to 191 °C (dec.).

For the molecule `Fc1ccc(SCCCN2CCN(c3cccc4ccsc34)CC2)c(Cl)c1` (as salt: hydrochloride) [Compound 2e, 1-Benzo[b]thiophen-7-yl-4-[3-(2-chloro-4-fluoro-phenylsulfanyl)-propyl]-piperazine], the melting point is 216 to 219 °C.

In turn, `COc1cc(F)ccc1OCCCN1CCN(c2cccc3c2OCCO3)CC1` (as salt: oxalate) [Compound 1d, 1-(2,3-Dihydro-benzo[1,4]dioxin-5-yl)-4-[3-(4-fluoro-2-methoxy-phenoxy)-propyl]-piperazine] gave a melting point of 141 to 142 °C.

Turning to `Clc1cccc(Cl)c1OCCCN1CCN(c2cccc3c2OCCO3)CC1` (as salt: oxalate) [Compound 1b, 1-[3-(2,6-Dichloro-phenoxy)-propyl]-4-(2,3-dihydro-benzo[1,4]dioxin-5-yl)-piperazine], the melting point is 179 to 181 °C.

(Values after patent publication US20030050306A1, “Novel heteroaryl derivatives, their preparation and use” (H. Lundbeck A/S, priority 1999, published 2003).)
